According to US20240261440A1, “COMPOSITIONS, METHODS AND USES FOR TREATING CYSTIC FIBROSIS AND RELATED DISORDERS” (The Board of Regents of The University of Texas System, priority 0001, published 2024):

System: C57BL/6 mice
Assay: In vivo Luc mRNA delivery (IVIS luminescence imaging)
Design: species or system mouse
Conditions: 0.1 mg kg-1 Luc mRNA, i.v., 6h; 20% to 50% cationic lipid
Protocol: C57BL/6 mice with weight at around 20 g were i.v. injected with various Luc mRNA formulations (0.1 mg kg^−1 of Luc mRNA, n=3 per group). After 6 hours, these mice were injected with D-Luciferin (150 mg kg^−1, intraperitoneal) and imaged immediately using an IVIS Lumina system (Perkin Elmer). Afterwards, these mice were killed, and tissues were excised for ex vivo imaging using IVIS Lumina system.

CCCCCCCC/C=C\CCCCCCCC(=O)OCC(C[N+](C)(C)C)OC(=O)CCCCCCC/C=C\CCCCCCCC (stereo not shown) [DOTAP, 1,2-dioleoyl-3-trimethylammonium-propane]
luciferase expression in mouse lungs, permanently cationic lipid screen in mDLNP-2: higher luminescence activity than others
